Experimental data taken from patent publication US12559464B2, “Quinazolinone dione compounds and uses thereof” (Edgewise Therapeutics, Inc., priority 2023, dated 2026).

Tests used:
[1] = biological target: T1, myosin ATPase, Porcine Ventricle myofibrils (Sus scrofa, UniProt P79293); experiment: Myofibril ATPase assay, porcine ventricle myofibrils; format: biochemical, porcine (Yucatan minipigs); settings: concentration required to reduce myosin ATP-ase activity by 25%; Porcine Ventricle Prep pCa 25 GEOM_MEAN
T1 construct: Myofibrils from porcine cardiac muscle was isolated from the left ventricle of Yucatan minipigs; tissue Exemplar Genetics; host or cells: left ventricle of Yucatan minipigs, myofibrils
Method: (§1) Myofibril ATPase assays are known in the art to be useful in evaluating small molecules for the treatment of HCM and other cardiac indications. Myosin ATPase activity is assessed by using a coupled reaction system, in which ADP generated by the myosin ATPase function is coupled to the disappearance of NADH through the pyruvate kinase/lactate dehydrogenase (PK-LDH) system. ATPase activity produces ADP, which is used as a substrate for PK to produce pyruvate and regenerate ATP. The pyruvate is then used as a substrate by LDH to oxidize NADH to NAD+. The rate of the reaction is monitored through the time-dependent disappearance of NADH using absorbance at 340 nm, which, when the couple system is in stoichiometric excess, is directly correlated to the ATPase activity of the myosin. Inhibition of ATPase activity by the assayed compounds is indicated by a reduced rate of NADH loss, relative to vehicle-treated controls, over the experimental time window. Porcine Ventricle are the primary sources of myofibril material.
(§2) Materials: The following stock solutions and reagents were used in the Myofibril ATPase Assay: Stock Solutions; PIPES, 200 mM and 120 mM in H2O, pH 7.0; MgCl2 in H2O, 200 mM; PM12 Buffer, 10×: 120 mM PIPES (from 200 mM stock), 20 mM MgCl2 (from 200 mM stock); PBS Buffer, 1X: 135 mM NaCl, […], 10 mM Na(PO4)2, 1.8 mM K2(PO4), pH 7.4; EGTA in H2O, 250 mM; CaCl2) in H2O, 500 mM; DTT in H2O, 1 M; BSA in H2O, 10 mg/mL; ATP in 1×PBS, 50 mM; NADH in 1X PM12 and 1 mM DTT, 26 mM; PEP in 1X PM12, 78 mM, pH 7.0.
(§3) Stock Solutions of pCa buffer. Combine PIPES, CaCl2, and EGTA solutions with water. Adjust pH to 7.0 and bring final volume to 100 mL.
(§4) Buffer A & Buffer B. Prepare buffers A and B according to the table below.
(§5) Myofibril ATPase Assay Procedure: BSA, ATP, NADH, PEP, and DTT solutions were thawed at room temperature, then transferred to ice. Pellet-frozen myofibrils were transferred with approximately twice the required volume into a sufficiently large tube and capped. Myofibrils were thawed by rolling in a water bath for approximately 15 min at room temperature and cooled on ice. Buffers A and B were prepared by adjusting volumes as necessary for required number of wells and stored on ice. 0.5 μL of the compounds to be assayed were added into wells. 25 μL of Buffer A was dispensed into the wells, followed by 25 μL of Buffer B. The wells were measured for absorbance at 340 nm, using a kinetic protocol in which the wells are read every 1.5-2 min for 75 min. Assay data analysis was performed using a python script that filtered the raw data to retain those points falling between a starting and ending time and between a maximum and minimum absorbance, then used the filtered time-domain 340 nm absorbance data in each well to calculate a slope via linear regression analysis in units of mAU/min. Compound slopes were normalized between 100% and 0% activity, where 100% represented the slope of wells containing only compound vehicle, and fit to a 4-parameter logistic model. In addition to the fit parameters, the EC25% values were calculated, relative to the 100% normalized value. Additionally, the Y125 values were calculated for compounds that increased myosin ATP-ase activity. Fit parameters, calculated effective concentrations, filtered raw data, and calculated slopes were exported, in addition to compound-specific graphs of normalized ATPase activity versus concentration in μM. Each value reported in Table 8 is either a Y75 value or a Y125 value. Values without pound sign, #, are Y75 values, which reflect the concentration required to reduce myosin ATP-ase activity by 25% (e.g., Y-axis activity value is 75% of initial value), relative to myosin ATP-ase activity in the absence of exogenous compound. […]

[2] = test system: myosin ATPase, Porcine Atria myofibrils; experiment: Myofibril ATPase assay, porcine atria myofibrils; format: biochemical; settings: concentration required to reduce myosin ATP-ase activity by 25%; Porcine Atria Prep pCa 25 GEOM_MEAN
[3] = test system: myosin ATPase, Rabbit Psoas myofibrils; experiment: Myofibril ATPase assay, rabbit psoas (skeletal) myofibrils; format: biochemical; settings: concentration required to reduce myosin ATP-ase activity by 25%; Rabbit Psoas Prep pCa 25 GEOM_MEAN
Method: [Worded in the source for another species; this species is reported under the same test.] as §1, §2, §3, §4, §5

T1 sequence (P79293 whole entry): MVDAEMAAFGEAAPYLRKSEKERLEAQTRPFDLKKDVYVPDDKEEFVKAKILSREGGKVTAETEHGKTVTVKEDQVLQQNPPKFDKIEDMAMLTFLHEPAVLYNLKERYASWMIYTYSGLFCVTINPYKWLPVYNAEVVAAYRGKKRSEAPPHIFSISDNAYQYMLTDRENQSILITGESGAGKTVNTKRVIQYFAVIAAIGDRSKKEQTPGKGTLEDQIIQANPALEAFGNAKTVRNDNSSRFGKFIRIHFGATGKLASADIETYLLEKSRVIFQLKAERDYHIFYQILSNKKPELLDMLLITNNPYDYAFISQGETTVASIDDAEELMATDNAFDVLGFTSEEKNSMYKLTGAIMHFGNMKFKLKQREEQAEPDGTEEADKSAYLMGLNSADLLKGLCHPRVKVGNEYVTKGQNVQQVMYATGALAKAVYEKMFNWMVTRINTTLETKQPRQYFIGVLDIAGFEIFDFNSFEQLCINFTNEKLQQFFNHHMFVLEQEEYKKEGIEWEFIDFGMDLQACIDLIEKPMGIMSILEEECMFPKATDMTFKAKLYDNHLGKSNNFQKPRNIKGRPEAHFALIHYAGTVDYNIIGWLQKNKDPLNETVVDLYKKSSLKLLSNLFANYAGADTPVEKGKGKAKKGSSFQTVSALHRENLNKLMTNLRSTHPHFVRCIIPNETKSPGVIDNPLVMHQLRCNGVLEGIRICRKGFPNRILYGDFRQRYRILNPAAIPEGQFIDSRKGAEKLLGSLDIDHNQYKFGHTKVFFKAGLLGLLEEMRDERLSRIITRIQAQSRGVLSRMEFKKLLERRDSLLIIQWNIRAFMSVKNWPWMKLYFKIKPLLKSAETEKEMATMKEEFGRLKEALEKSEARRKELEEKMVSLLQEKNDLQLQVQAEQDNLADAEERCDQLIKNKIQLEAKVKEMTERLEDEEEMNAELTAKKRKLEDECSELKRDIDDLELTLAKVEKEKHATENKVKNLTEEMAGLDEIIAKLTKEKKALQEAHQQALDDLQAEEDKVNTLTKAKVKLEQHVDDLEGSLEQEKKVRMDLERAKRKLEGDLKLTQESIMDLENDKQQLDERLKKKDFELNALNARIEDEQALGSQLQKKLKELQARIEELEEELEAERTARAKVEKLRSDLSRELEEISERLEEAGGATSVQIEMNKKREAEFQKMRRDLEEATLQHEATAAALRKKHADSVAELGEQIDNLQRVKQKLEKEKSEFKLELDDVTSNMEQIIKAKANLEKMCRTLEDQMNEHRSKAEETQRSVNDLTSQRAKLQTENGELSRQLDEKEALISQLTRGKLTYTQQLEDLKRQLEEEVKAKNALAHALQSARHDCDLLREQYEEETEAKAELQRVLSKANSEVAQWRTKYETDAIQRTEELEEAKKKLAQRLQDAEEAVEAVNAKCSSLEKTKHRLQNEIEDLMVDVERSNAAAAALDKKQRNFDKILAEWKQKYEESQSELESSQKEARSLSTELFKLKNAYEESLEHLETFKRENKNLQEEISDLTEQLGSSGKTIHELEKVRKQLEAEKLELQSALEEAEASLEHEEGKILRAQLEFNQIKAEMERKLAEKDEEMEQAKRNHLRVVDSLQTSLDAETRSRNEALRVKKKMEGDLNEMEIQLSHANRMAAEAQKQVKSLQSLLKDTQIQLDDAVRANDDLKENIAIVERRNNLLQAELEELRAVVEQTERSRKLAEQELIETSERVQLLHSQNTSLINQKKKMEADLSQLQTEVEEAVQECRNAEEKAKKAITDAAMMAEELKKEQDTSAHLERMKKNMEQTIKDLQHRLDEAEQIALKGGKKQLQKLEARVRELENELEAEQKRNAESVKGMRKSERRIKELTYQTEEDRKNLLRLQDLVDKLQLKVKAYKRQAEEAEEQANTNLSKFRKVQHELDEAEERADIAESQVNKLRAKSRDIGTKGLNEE

SMILES: C[C@@H](NC(=O)Cn1c(=O)[nH]c2ccc(F)cc2c1=O)c1ncc(C#N)cn1 (single isomer, unassigned) [Compound 1]
- Porcine Ventricle EC25 (Y75 value) [1]: 20.04 µM
- Porcine Atria EC25 (Y75 value) [2]: 0.699 µM
- Rabbit Psoas EC25 (Y75 value) [3]: 0.59 µM

SMILES: C[C@H](NC(=O)Cn1c(=O)[nH]c2ccc(F)cc2c1=O)c1ncc(C#N)cn1 (single isomer, unassigned) [Compound 2]
- Porcine Ventricle EC25 (Y75 value) [1]: 100 µM
- Porcine Atria EC25 (Y75 value) [2]: 24.53 µM
- Rabbit Psoas EC25 (Y75 value) [3]: 86.83 µM

SMILES: C[C@@H](NC(=O)Cn1c(=O)[nH]c2ccc(F)c(F)c2c1=O)c1ccc(C#N)nn1 (single isomer, unassigned) [Compound 3]
- Porcine Ventricle EC25 (Y75 value) [1]: 100 µM
- Porcine Atria EC25 (Y75 value) [2]: 1.074 µM
- Rabbit Psoas EC25 (Y75 value) [3]: 2.538 µM

SMILES: C[C@H](NC(=O)Cn1c(=O)[nH]c2ccc(F)c(F)c2c1=O)c1ccc(C#N)nn1 (single isomer, unassigned) [Compound 4]
- Porcine Ventricle EC25 (Y75 value) [1]: 4.869 µM
- Porcine Atria EC25 (Y75 value) [2]: 0.178 µM
- Rabbit Psoas EC25 (Y75 value) [3]: 0.204 µM

SMILES: C[C@@H](NC(=O)Cn1c(=O)[nH]c2ccc(F)cc2c1=O)c1ncc(C#N)cc1F (single isomer, unassigned) [Compound 7]
- Porcine Ventricle EC25 (Y75 value) [1]: 1.467 µM
- Porcine Atria EC25 (Y75 value) [2]: 0.3543 µM
- Rabbit Psoas EC25 (Y75 value) [3]: 5.692 µM

SMILES: C[C@H](NC(=O)Cn1c(=O)[nH]c2ccc(F)cc2c1=O)c1ncc(C#N)cc1F (single isomer, unassigned) [Compound 8]
- Porcine Ventricle EC25 (Y75 value) [1]: 0.448 µM
- Porcine Atria EC25 (Y75 value) [2]: 0.094 µM
- Rabbit Psoas EC25 (Y75 value) [3]: 0.108 µM

SMILES: Cc1c(F)ccc2[nH]c(=O)n(CC(=O)N[C@@H]3CCc4cc(C#N)cnc43)c(=O)c12 (single isomer, unassigned) [Compound 9]
- Porcine Ventricle EC25 (Y75 value) [1]: 0.547 µM
- Porcine Atria EC25 (Y75 value) [2]: 0.078 µM
- Rabbit Psoas EC25 (Y75 value) [3]: 0.631 µM

SMILES: Cc1cc(C#N)cnc1[C@@H](C)NC(=O)Cn1c(=O)[nH]c2ccc(F)c(F)c2c1=O (single isomer, unassigned) [Compound 13]
- Porcine Ventricle EC25 (Y75 value) [1]: 0.119 µM
- Porcine Atria EC25 (Y75 value) [2]: 0.048 µM
- Rabbit Psoas EC25 (Y75 value) [3]: 0.043 µM

SMILES: Cc1cc(C#N)cnc1[C@H](C)NC(=O)Cn1c(=O)[nH]c2ccc(F)c(F)c2c1=O (single isomer, unassigned) [Compound 14]
- Porcine Ventricle EC25 (Y75 value) [1]: 23.76 µM
- Porcine Atria EC25 (Y75 value) [2]: 5.931 µM
- Rabbit Psoas EC25 (Y75 value) [3]: 21.27 µM

SMILES: C[C@@H](NC(=O)Cn1c(=O)[nH]c2ccc(C#N)cc2c1=O)c1ncc(C#N)cc1F (single isomer, unassigned) [Compound 15]
- Porcine Ventricle EC25 (Y75 value) [1]: 100 µM
- Porcine Atria EC25 (Y75 value) [2]: 4.31 µM
- Rabbit Psoas EC25 (Y75 value) [3]: 100 µM

SMILES: C[C@H](NC(=O)Cn1c(=O)[nH]c2ccc(C#N)cc2c1=O)c1ncc(C#N)cc1F (single isomer, unassigned) [Compound 16]
- Porcine Ventricle EC25 (Y75 value) [1]: 14.04 µM
- Porcine Atria EC25 (Y75 value) [2]: 0.57 µM
- Rabbit Psoas EC25 (Y75 value) [3]: 5.743 µM

SMILES: C[C@@H](NC(=O)Cn1c(=O)[nH]c2ccc(F)c(F)c2c1=O)c1ccc(C#N)cn1 (single isomer, unassigned) [Compound 17]
- Porcine Ventricle EC25 (Y75 value) [1]: 10.16 µM
- Porcine Atria EC25 (Y75 value) [2]: 0.427 µM
- Rabbit Psoas EC25 (Y75 value) [3]: 9.016 µM

SMILES: C[C@H](NC(=O)Cn1c(=O)[nH]c2ccc(F)c(F)c2c1=O)c1ccc(C#N)cn1 (single isomer, unassigned) [Compound 18]
- Porcine Ventricle EC25 (Y75 value) [1]: 5.522 µM
- Porcine Atria EC25 (Y75 value) [2]: 0.378 µM
- Rabbit Psoas EC25 (Y75 value) [3]: 0.512 µM

SMILES: C[C@@H](NC(=O)Cn1c(=O)[nH]c2ccc(F)c(C#N)c2c1=O)c1ncc(C#N)cc1F (single isomer, unassigned) [Compound 3001]
- Porcine Ventricle EC25 (Y75 value) [1]: 100.00 µM
- Porcine Atria EC25 (Y75 value) [2]: 5.34 µM

SMILES: C[C@H](NC(=O)Cn1c(=O)[nH]c2ccc(F)c(C#N)c2c1=O)c1ncc(C#N)cc1F (single isomer, unassigned) [Compound 3002]
- Porcine Ventricle EC25 (Y75 value) [1]: 0.24 µM
- Porcine Atria EC25 (Y75 value) [2]: 0.11 µM

SMILES: Cc1ccc2[nH]c(=O)n(CC(=O)N[C@H](C)c3ncc(C#N)cc3F)c(=O)c2c1F (single isomer, unassigned) [Compound 3003]
- Porcine Ventricle EC25 (Y75 value) [1]: 63.05 µM
- Porcine Atria EC25 (Y75 value) [2]: 1.32 µM

SMILES: Cc1ccc2[nH]c(=O)n(CC(=O)N[C@@H](C)c3ncc(C#N)cc3F)c(=O)c2c1F (single isomer, unassigned) [Compound 3004]
- Porcine Ventricle EC25 (Y75 value) [1]: 0.51 µM
- Porcine Atria EC25 (Y75 value) [2]: 0.18 µM

SMILES: C[C@H](NC(=O)Cn1c(=O)[nH]c2ccccc2c1=O)c1cccc2ccccc12 (single isomer, unassigned) [Compound 5002]
- Rabbit Psoas EC25 (Y75 value) [3]: 100 µM

SMILES: C[C@H](NC(=O)Cn1c(=O)[nH]c2cccc(Cl)c2c1=O)c1ccc(F)cc1F [Compound 136, (S)-2-(5-chloro-2,4-dioxo-1,4-dihydroquinazolin-3(2H)-yl)-N-(1-(2,4-difluorophenyl)ethyl)acetamide]
- Porcine Ventricle EC25 (Y75 value) [1]: 0.256 µM
- Rabbit Psoas EC25 (Y75 value) [3]: 0.591 µM

SMILES: C[C@H](NC(=O)Cn1c(=O)[nH]c2ccccc2c1=O)c1ccc(F)cc1F [Compound 167, (S)-N-(1-(2,4-difluorophenyl)ethyl)-2-(2,4-dioxo-1,4-dihydroquinazolin-3(2H)-yl)acetamide]
- Porcine Ventricle EC25 (Y75 value) [1]: 7.022 µM
- Rabbit Psoas EC25 (Y75 value) [3]: 0.52 µM

SMILES: CC(NC(=O)Cn1c(=O)[nH]c2ccccc2c1=O)C1CN(C)CCO1 (centres unmarked) [Compound 5001, 2-(2,4-dioxo-1,4-dihydroquinazolin-3(2H)-yl)-N-(1-(4-methylmorpholin-2-yl)ethyl)acetamide]
- Rabbit Psoas EC25 (Y75 value) [3]: 100 µM

SMILES: CC(NC(=O)Cn1c(=O)[nH]c2ccccc2c1=O)C1CCCCC1 (centres unmarked) [Compound 5003, N-(1-cyclohexylethyl)-2-(2,4-dioxo-1,4-dihydroquinazolin-3(2H)-yl)acetamide]
- Rabbit Psoas EC25 (Y75 value) [3]: 100 µM

SMILES: O=C(Cn1c(=O)[nH]c2ccccc2c1=O)NCc1ccc(Cn2cccn2)cc1 [Compound 5004, N-(4-((1H-pyrazol-1-yl)methyl)benzyl)-2-(2,4-dioxo-1,4-dihydroquinazolin-3(2H)-yl)acetamide]
- Rabbit Psoas EC25 (Y75 value) [3]: 100 µM

SMILES: O=C(Cn1c(=O)[nH]c2ccccc2c1=O)NCc1ccccn1 [Compound 5005, 2-(2,4-dioxo-1,4-dihydroquinazolin-3(2H)-yl)-N-(pyridin-2-ylmethyl)acetamide]
- Rabbit Psoas EC25 (Y75 value) [3]: 100 µM

SMILES: O=C(Cn1c(=O)[nH]c2ccccc2c1=O)NCc1cccnc1 [Compound 5006, 2-(2,4-dioxo-1,4-dihydroquinazolin-3(2H)-yl)-N-(pyridin-3-ylmethyl)acetamide]
- Rabbit Psoas EC25 (Y75 value) [3]: 100 µM

SMILES: O=C(Cn1c(=O)[nH]c2ccccc2c1=O)NCc1ccncc1 [Compound 5007, 2-(2,4-dioxo-1,4-dihydroquinazolin-3(2H)-yl)-N-(pyridin-4-ylmethyl)acetamide]
- Rabbit Psoas EC25 (Y75 value) [3]: 100 µM

SMILES: O=C(Cn1c(=O)[nH]c2ccccc2c1=O)NCCc1ccccc1Cl [Compound 5008, N-(2-chlorophenethyl)-2-(2,4-dioxo-1,4-dihydroquinazolin-3(2H)-yl)acetamide]
- Rabbit Psoas EC25 (Y75 value) [3]: 100 µM
